Test results reported in patent US20260275323A1, “FULLY GENETICALLY ENCODED NAD+PROTEIN PROBE BASED ON RESONANCE ENERGY TRANSFER,AND PREPARATION METHOD THEREFOR AND USE THEREOF” (SHENZHEN INSTITUTES OF ADVANCED TECHNOLOGY, priority 2021, published 2026).

How the values were obtained:
[1] = system: HEK293 stably transfected cell line; test: Intracellular NAD+ change in HEK293 cell line stably expressing probe NADS1.0 (590/440 emitted light ratio); type: cell-based; details: final concentration 10 nM, 24 h treatment
Procedure: The NAD+ molecular probe provided by the invention can detect changes in the concentration of NAD+ molecules in cells. The coding gene of this probe (NADS1.0) is cloned into the pCDH-CMV-MCS-EF1-Neo vector, and the HEK293 stably transfected cell line is prepared using lentiviral method. […] After 24 h of treatment with the compounds, the DMEM medium (high sugar, phenol red free) is changed to fresh DMEM medium (high sugar, phenol red free, bioluminescent substrate diluted by 1,000-fold) with bioluminescent substrate. The emitted light intensity at 590 nm and 440 nm is measured using Flex Station3 multifunctional microplate reader. According to the detection principle of the probe, the ratio of emitted light intensity at 590 nm and 440 nm indicates the NAD+ concentration in living cells. It is found in the detection that the ratio decreased in cells treated with FK866, indicating a decrease in intracellular NAD+ concentration, while in the NRH-treated cells, the ratio increased, indicating an increase in intracellular NAD+ concentration.

[2] = biological target: T1, NAD+ probe NADS3.0 (mScarlet mutant-LigA mutant-mNeoGreen mutant fusion), SEQ ID NO. 11; LigA mutant 1 SEQ ID NO. 3 (Enterococcus faecalis, UniProt Q837V6, D286N/K120L/R163D/R68N); test: NAD+ titration of purified FRET probe NADS3.0; type: binding; details: 585/515 nm ratio, excitation 470 nm
T1 construct: purified FRET probe NADS3.0
T1 sequence (Q837V6 6-317 R68N/K120L/R163D/D286N): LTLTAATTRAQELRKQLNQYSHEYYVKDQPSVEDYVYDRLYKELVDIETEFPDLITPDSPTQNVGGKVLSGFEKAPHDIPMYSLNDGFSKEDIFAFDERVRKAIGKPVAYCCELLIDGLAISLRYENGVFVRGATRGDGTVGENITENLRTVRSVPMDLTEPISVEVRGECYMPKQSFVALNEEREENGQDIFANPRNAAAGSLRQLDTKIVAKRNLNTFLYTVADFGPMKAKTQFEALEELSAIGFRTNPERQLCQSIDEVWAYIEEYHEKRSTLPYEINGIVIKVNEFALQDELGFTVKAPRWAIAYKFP
Description: The sequence of NADS3.0 is shown as SEQ ID NO. 11
mScarlet mutant-LigA mutant-mNeoGreen mutant
The sequence of LigA mutant 1 is shown as SEQ ID NO.

[3] = biological target: T2, NAD+ probe NADS2.0 (mNeoGreen mutant-LigA mutant-cpNluc mutant fusion), SEQ ID NO. 9; LigA mutant SEQ ID NO. 3 (Enterococcus faecalis, UniProt Q837V6, D286N/K120L/R163D/R68N); test: NAD+ titration of purified BRET probe NADS2.0; type: binding; details: 515/440 nm light intensity ratio
T2 construct: purified BRET probe NADS2.0
T2 sequence (Q837V6 6-317 R68N/K120L/R163D/D286N): as above
Description: The sequence of NADS^2.0 is shown as SEQ ID NO. 9
mNeoGreen mutant-LigA mutant-cpNluc mutant
The sequence of LigA1 mutant is shown as SEQ ID NO.

[4] = biological target: T3, NAD+ probe NADS1.2 (mScarlet mutant-LigA mutant-cpNluc mutant fusion), SEQ ID NO. 7; LigA mutant 1 (DNA ligase LigA mutant), SEQ ID NO. 3 (Enterococcus faecalis, UniProt Q837V6, D286N/K120L/R163D/R68N); test: Response of NAD+ molecular probe NADS1.2 to NAD+ and different NAD+ analogs; type: binding; details: for dynamic range of probe response / response of probe: NADS1.2, NAD+ analogs, 590/440 nm ratio; for dynamic range of probe response: in words
T3 construct: purified BRET probe NADS1.2
T3 sequence (Q837V6 6-317 R68N/K120L/R163D/D286N): as above

[5] = system: NAD+ molecular probe NAD1.2; test: Response of NAD+ molecular probe to different NAD+ analogs (590/440 ratio titration); type: biochemical; details: FIG. 4
Procedure: (2) Add 80 μL of probe solution, 10 μL of NAD+ solution or 10 μL of NAD+ analogs solution, and 10 μL of bioluminescent substrate solution into the white 96-well elisa plate, blowing, suction, and mix immediately several times (at least 8 times) with multi-channel pipette; use Flex Station3 multifunctional microplate reader to read the light intensity values at the wavelengths of 440 nm and 590 nm under the luminescence mode, and monitor the values for 5 min continuously, and the average receptor-to-donor luminescence ratio is calculated for this time period.

## O=C(/C=C/c1cccnc1)NCCCCC1CCN(C(=O)c2ccccc2)CC1 [FK866]
[1]
  ratio of emitted light intensity at 590 nm and 440 nm (indicates intracellular NAD+ concentration): decreased

## NC(=O)c1ccc[n+]([C@@H]2O[C@H](COP(=O)([O-])OP(=O)(O)OC[C@H]3O[C@@H](n4cnc5c(N)ncnc54)[C@H](O)[C@@H]3O)[C@@H](O)[C@H]2O)c1 [NAD+]
[2]
  dynamic range: 1.21 fold
[3]
  dynamic range: 1.8 fold

## NC(=O)C1=CN([C@@H]2O[C@H](COP(=O)(O)OP(=O)(O)OC[C@H]3O[C@@H](n4cnc5c(N)ncnc54)[C@H](O)[C@@H]3O)[C@@H](O)[C@H]2O)C=CC1 [NADH]
[4]
  EC50: > 1000 µM

## NC(=O)c1ccc[n+]([C@@H]2O[C@H](COP(=O)([O-])OP(=O)(O)OC[C@H]3O[C@@H](n4cnc5c(N)ncnc54)[C@H](OP(=O)(O)O)[C@@H]3O)[C@@H](O)[C@H]2O)c1 [NADP+]
[5]
  dynamic range of the probe response to the analog: small
[4]
  dynamic range of probe response: small dynamic range

## NC(=O)C1=CN([C@@H]2O[C@H](COP(=O)(O)OP(=O)(O)OC[C@H]3O[C@@H](n4cnc5c(N)ncnc54)[C@H](OP(=O)(O)O)[C@@H]3O)[C@@H](O)[C@H]2O)C=CC1 [NADPH]
[4]
  response of probe: did not respond

## NC(=O)c1cccnc1 [NAM]
[4]
  response of probe: did not respond

## NC(=O)c1ccc[n+]([C@@H]2O[C@H](COP(=O)([O-])O)[C@@H](O)[C@H]2O)c1 [NMN]
[5]
  dynamic range of the probe response to the analog: small
[4]
  dynamic range of probe response: small dynamic range
